Assay results from patent publication US4226980A, “Novel derivatives of fortimicin B and process for preparing same” (Abbott Laboratories, priority 1978, dated 1980).

Experiments:
Assay type in all cases: cell-based
[1] = test system: Pseudomonas aeruginosa R9 KY8516; assay: antibacterial activity (MIC), resistant strain; conditions: medium pH 7.2; strain "producing kanamycin" (footnote 1); unit assumed
Procedure: (§1) Furthermore in the following Table 3, the antibacterial activity (MIC) of the compounds are set forth. The measurement was carried out according to the Japanese Antibiotic Medicament Standard using a medium having a pH of 7.2. Numbers of the compounds in Table 3 correspond to those in Tables 1 and 2.

[2] = test system: Escherichia coli R18 KY-8321; assay: antibacterial activity (MIC), resistant strain; conditions: medium pH 7.2; strain producing gentamicin nucleotidyltransferase and neomycin phosphotransferase II; unit assumed
Procedure: as §1

[3] = test system: Pseudomonas aeruginosa R4 KY8511; assay: antibacterial activity (MIC), resistant strain; conditions: medium pH 7.2; strain producing gentamicin acetyltransferase; unit assumed
Procedure: as §1

[4] = test system: Escherichia coli R19 KY-8348; assay: antibacterial activity (MIC), resistant strain; conditions: medium pH 7.2; strain producing gentamicin acetyltransferase; unit assumed
Procedure: as §1

Providencia sp. 164 = assay: antibacterial activity (MIC), resistant strain; conditions: medium pH 7.2; strain producing gentamicin acetyltransferase (footnote 5); unit assumed
Procedure: as §1

[5] = test system: Escherichia coli 57R/W677; assay: antibacterial activity (MIC), resistant strain; conditions: medium pH 7.2; strain "producing gentamicin" (footnote 4); unit assumed
Procedure: as §1

[6] = test system: Klebsiella pneumniae 3020 Y60; assay: antibacterial activity (MIC), resistant strain; conditions: medium pH 7.2; strain "producing gentamicin" (footnote 4); unit assumed
Procedure: as §1

[7] = test system: Escherichia coli R17 Z-343; assay: antibacterial activity (MIC), resistant strain; conditions: medium pH 7.2; strain "producing kanamycin" (footnote 1); unit assumed
Procedure: as §1

Escherichia coli NIHJ-2 = assay: antibacterial activity (MIC); conditions: medium pH 7.2, Japanese Antibiotic Medicament Standard; unit assumed
Procedure: as §1

[8] = test system: Shigella sonnei ATCC 9290; assay: antibacterial activity (MIC); conditions: medium pH 7.2, Japanese Antibiotic Medicament Standard; unit assumed
Procedure: as §1

[9] = test system: Pseudomonas aeruginosa BMH#10; assay: antibacterial activity (MIC); conditions: medium pH 7.2, Japanese Antibiotic Medicament Standard; unit assumed
Procedure: as §1

[10] = test system: Staphylococcus aureus 209-p; assay: antibacterial activity (MIC); conditions: medium pH 7.2, Japanese Antibiotic Medicament Standard; unit assumed
Procedure: as §1

Escherichia coli 3100 = assay: antibacterial activity (MIC); conditions: medium pH 7.2, Japanese Antibiotic Medicament Standard; unit assumed
Procedure: as §1

[11] = test system: Staphylococcus aureus Smith; assay: antibacterial activity (MIC); conditions: medium pH 7.2, Japanese Antibiotic Medicament Standard; unit assumed
Procedure: as §1

[12] = test system: Bacillus subtilis ATCC 6633; assay: antibacterial activity (MIC); conditions: medium pH 7.2, Japanese Antibiotic Medicament Standard; unit assumed
Procedure: as §1

Providencia sp. KY3950 = assay: antibacterial activity (MIC); conditions: medium pH 7.2, Japanese Antibiotic Medicament Standard; unit assumed
Procedure: as §1

[13] = test system: Klebsiella pneumoniae #8045; assay: antibacterial activity (MIC); conditions: medium pH 7.2, Japanese Antibiotic Medicament Standard; unit assumed
Procedure: as §1

COC1C(O)C(N)C(OC2OC(C(C)N)CCC2NCCN)C(O)C1N(C)C[C@@H](O)CCN (stereo partly drawn) [Compound 7, 4-N-[(S)-4-amino-2-hydroxybutyl]-2'-N-(2-aminoethyl)fortimicin B]
antibacterial activity (MIC) [1]: 6.25 µg/mL | antibacterial activity (MIC) [2]: 3.12 µg/mL | antibacterial activity (MIC) [3]: 12.5 µg/mL | antibacterial activity (MIC) [4]: 0.78 µg/mL | antibacterial activity (MIC) (Providencia sp. 164): 12.5 µg/mL | antibacterial activity (MIC) [5]: 3.12 µg/mL | antibacterial activity (MIC) [6]: 6.25 µg/mL | antibacterial activity (MIC) [7]: 0.78 µg/mL | antibacterial activity (MIC) (Escherichia coli NIHJ-2): 3.12 µg/mL | antibacterial activity (MIC) [8]: 3.12 µg/mL | antibacterial activity (MIC) [9]: 0.78 µg/mL | antibacterial activity (MIC) [10]: 0.78 µg/mL | antibacterial activity (MIC) (Escherichia coli 3100): 3.12 µg/mL | antibacterial activity (MIC) [11]: 1.56 µg/mL | antibacterial activity (MIC) [12]: 0.4 µg/mL | antibacterial activity (MIC) (Providencia sp. KY3950): 6.25 µg/mL | antibacterial activity (MIC) [13]: 0.78 µg/mL

COC1C(O)C(N)C(OC2OC(C(C)N)CCC2NC(=O)[C@@H](O)CCN)C(O)C1N(C)C[C@@H](O)CCN (stereo partly drawn) [Compound 8, 4-N-[(S)-4-amino-2-hydroxybutyl]-2'-N-[(S)-4-amino-2-hydroxybutyryl]fortimicin B]
antibacterial activity (MIC) [1]: 50 µg/mL | antibacterial activity (MIC) [2]: 6.25 µg/mL | antibacterial activity (MIC) [3]: 100 µg/mL | antibacterial activity (MIC) [4]: 3.12 µg/mL | antibacterial activity (MIC) (Providencia sp. 164): 6.25 µg/mL | antibacterial activity (MIC) [5]: 3.12 µg/mL | antibacterial activity (MIC) [6]: 12.5 µg/mL | antibacterial activity (MIC) [7]: 0.78 µg/mL | antibacterial activity (MIC) (Escherichia coli NIHJ-2): 1.56 µg/mL | antibacterial activity (MIC) [8]: 6.25 µg/mL | antibacterial activity (MIC) [9]: 0.78 µg/mL | antibacterial activity (MIC) [10]: 0.78 µg/mL | antibacterial activity (MIC) (Escherichia coli 3100): 3.12 µg/mL | antibacterial activity (MIC) [11]: 1.56 µg/mL | antibacterial activity (MIC) [12]: 0.78 µg/mL | antibacterial activity (MIC) (Providencia sp. KY3950): 6.25 µg/mL | antibacterial activity (MIC) [13]: 1.56 µg/mL

COC1C(O)C(N)C(OC2OC(C(C)N)CCC2NC[C@@H](O)CCN)C(O)C1N(C)C[C@@H](O)CCN (stereo partly drawn) [Compound 9, 4,2'-di-N-[(S)-4-amino-2-hydroxybutyl]fortimicin B]
antibacterial activity (MIC) [1]: 3.12 µg/mL | antibacterial activity (MIC) [2]: 1.56 µg/mL | antibacterial activity (MIC) [3]: 100 µg/mL | antibacterial activity (MIC) [4]: 6.25 µg/mL | antibacterial activity (MIC) (Providencia sp. 164): 3.12 µg/mL | antibacterial activity (MIC) [5]: 3.12 µg/mL | antibacterial activity (MIC) [6]: 3.12 µg/mL | antibacterial activity (MIC) [7]: 1.56 µg/mL | antibacterial activity (MIC) (Escherichia coli NIHJ-2): 1.56 µg/mL | antibacterial activity (MIC) [8]: 3.12 µg/mL | antibacterial activity (MIC) [9]: 0.78 µg/mL | antibacterial activity (MIC) [10]: 0.78 µg/mL | antibacterial activity (MIC) (Escherichia coli 3100): 3.12 µg/mL | antibacterial activity (MIC) [11]: 0.78 µg/mL | antibacterial activity (MIC) [12]: 0.4 µg/mL | antibacterial activity (MIC) (Providencia sp. KY3950): 1.56 µg/mL | antibacterial activity (MIC) [13]: 1.56 µg/mL

COC1C(O)C(N)C(OC2OC(C(C)N)CCC2NCCO)C(O)C1N(C)C[C@@H](O)CCN (stereo partly drawn) [Compound 10, 4-N-[(S)-4-amino-2-hydroxybutyl]-2'-N-(2-hydroxyethyl)fortimicin B]
antibacterial activity (MIC) [1]: 50 µg/mL | antibacterial activity (MIC) [2]: 1.56 µg/mL | antibacterial activity (MIC) [3]: > 100 µg/mL | antibacterial activity (MIC) [4]: 100 µg/mL | antibacterial activity (MIC) (Providencia sp. 164): 50 µg/mL | antibacterial activity (MIC) [5]: 3.12 µg/mL | antibacterial activity (MIC) [6]: 100 µg/mL | antibacterial activity (MIC) [7]: 3.12 µg/mL | antibacterial activity (MIC) (Escherichia coli NIHJ-2): 6.25 µg/mL | antibacterial activity (MIC) [8]: 6.25 µg/mL | antibacterial activity (MIC) [9]: 1.56 µg/mL | antibacterial activity (MIC) [10]: 1.56 µg/mL | antibacterial activity (MIC) (Escherichia coli 3100): 3.12 µg/mL | antibacterial activity (MIC) [11]: 0.78 µg/mL | antibacterial activity (MIC) [12]: 0.78 µg/mL | antibacterial activity (MIC) (Providencia sp. KY3950): 12.5 µg/mL | antibacterial activity (MIC) [13]: 6.25 µg/mL

NC[C@H]1O[C@H](O[C@H]2[C@H](O)[C@@H](O[C@H]3O[C@H](CO)[C@@H](O)[C@H](N)[C@H]3O)[C@H](N)C[C@@H]2N)[C@H](O)[C@@H](O)[C@@H]1O [KA, kanamycin A, reference compound]
antibacterial activity (MIC) [1]: > 100 µg/mL | antibacterial activity (MIC) [2]: > 100 µg/mL | antibacterial activity (MIC) [3]: > 100 µg/mL | antibacterial activity (MIC) [4]: > 100 µg/mL | antibacterial activity (MIC) (Providencia sp. 164): > 100 µg/mL | antibacterial activity (MIC) [5]: 100 µg/mL | antibacterial activity (MIC) [6]: > 100 µg/mL | antibacterial activity (MIC) [7]: 12.5 µg/mL | antibacterial activity (MIC) (Escherichia coli NIHJ-2): 1.56 µg/mL | antibacterial activity (MIC) [8]: 3.12 µg/mL | antibacterial activity (MIC) [9]: 25 µg/mL | antibacterial activity (MIC) [10]: 0.4 µg/mL | antibacterial activity (MIC) (Escherichia coli 3100): 3.12 µg/mL | antibacterial activity (MIC) [11]: 0.4 µg/mL | antibacterial activity (MIC) [12]: 0.4 µg/mL | antibacterial activity (MIC) (Providencia sp. KY3950): 12.5 µg/mL | antibacterial activity (MIC) [13]: 0.78 µg/mL
